Laboratory results taken from patent publication US7384931B2, “Constrained compounds as CGRP-receptor antagonists” (Bristol-Myers Squibb Company, priority 2004, dated 2008).

What follows are compounds tested against CGRP receptor (Homo sapiens, UniProt O60894+Q16602) (assay: CGRP radioligand binding assay ([125I]-CGRP displacement, SK-N-MC homogenate)). Settings: displacement of [125I]-CGRP, room temperature 2 h.
Parameters: endogenous in cells; host or cells: SK-N-MC cells (homogenate/membrane pellet)
Description: CGRP Binding Assay. Tissue Culture. SK—N-MC cells were grown at 37° C. in 5% CO2 as a monolayer in medium consisting of MEM with Earle's salts and L-glutamine (Gibco) supplemented with 10% fetal bovine serum (Gibco). Cell Pellets. The cells were rinsed twice with phosphate-buffered saline (155 mM NaCl, 3.3 mM Na2HPO4, 1.1 mM KH2PO4, pH 7.4), and incubated for 5-10 min. at 4° C. in hypotonic lysis buffer consisting of 10 mM Tris (pH 7.4) and 5 mM EDTA. The cells were transferred from plates to polypropylene tubes (16×100 mm) and homogenized using a polytron. Homogenates were centrifuged at 32,000×g for 30 min. The pellets were resuspended in cold hypotonic lysis buffer with 0.1% mammalian protease inhibitor cocktail (Sigma) and assayed for protein concentration. The SK—N-MC homogenate was then aliquoted and stored at −80° C. until needed.
Radioligand Binding Assay. The compounds of invention were solubilized and carried through serial dilutions using 100% DMSO. Aliquots from the compound serial dilutions were further diluted 25 fold into assay buffer (50 mM Tris-Cl pH 7.5, 5 mM MgCl2, 0.005% Triton X-100) and transferred (volume 50 μl) into 96 well assay plates. [^125I]-CGRP (Amersham Biosciences) was diluted to 60 pM in assay buffer and a volume of 50 μl was added to each well. SK—N-MC pellets were thawed, diluted in assay buffer with fresh 0.1% mammalian protease inhibitor cocktail (Sigma), and homogenized again. SK—N-MC homogenate (5 μg/well) was added in a volume of 100 μl. The assay plates were then incubated at room temperature for 2 h. Assays were stopped by addition of excess cold wash buffer (20 mM Tris-Cl pH 7.5, 0.1% BSA) immediately followed by filtration over glass fiber filters (Whatman GF/B) previously soaked in 0.5% PEI. Non-specific binding was defined with 1 μM beta-CGRP. Protein bound radioactivity was determined using a gamma or scintillation counter. The IC50 was defined as the concentration of a compound of invention required to displace 50% of radioligand binding.

Sequence of CGRP receptor (Q16602 23-461): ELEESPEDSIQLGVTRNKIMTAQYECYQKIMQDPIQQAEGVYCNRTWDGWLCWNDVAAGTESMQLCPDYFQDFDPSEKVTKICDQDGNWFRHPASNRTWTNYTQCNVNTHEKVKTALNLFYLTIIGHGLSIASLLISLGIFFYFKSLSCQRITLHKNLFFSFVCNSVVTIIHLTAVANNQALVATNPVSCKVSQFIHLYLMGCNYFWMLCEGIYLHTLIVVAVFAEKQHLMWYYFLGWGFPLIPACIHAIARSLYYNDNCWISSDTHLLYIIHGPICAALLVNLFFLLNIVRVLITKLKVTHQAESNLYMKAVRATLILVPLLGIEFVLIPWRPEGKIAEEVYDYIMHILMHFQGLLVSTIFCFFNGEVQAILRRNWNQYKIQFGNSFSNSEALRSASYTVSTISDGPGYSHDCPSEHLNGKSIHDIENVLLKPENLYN
Sequence of CGRP receptor (O60894 27-148): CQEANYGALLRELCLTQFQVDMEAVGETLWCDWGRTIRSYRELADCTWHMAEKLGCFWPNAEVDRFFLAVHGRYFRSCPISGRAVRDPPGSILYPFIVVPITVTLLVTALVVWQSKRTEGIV

| Structure (SMILES) | IC50 |
| --- | --- |
| CC(C)(C)CN1Cc2c(cc(Cl)c3[nH]ncc23)C[C@@H](CC(=O)N2CCC(C3=Cc4ccccc4NS3(=O)=O)CC2)C1=O [Example 92] | 10 to 100 nM |
| CC(C)(C)CN1Cc2c(cc(Cl)c3[nH]ncc23)C[C@@H](CC(=O)N2CCC(c3ccc(Cl)cc3Cl)CC2)C1=O [Example 93, (S)-4-chloro-7-(2-(4-(2,4-dichlorophenyl)piperidin-1-yl)-2-oxoethyl)-9-neopentyl-6,7,9,10-tetrahydroazepino[3,4-e]indazol-8(3H)-one] | 100 to 1000 nM |
| CC(C)(C)CN1Cc2c(cc(Br)c3[nH]ncc23)C[C@@H](CC(=O)N2CCC(c3cc4ccccc4[nH]c3=O)CC2)C1=O [Example 94, (S)-4-bromo-9-neopentyl-7-(2-oxo-2-(4-(2-oxo-1,2-dihydroquinolin-3-yl)piperidin-1-yl)ethyl)-6,7,9,10-tetrahydroazepino[3,4-e]indazol-8(3H)-one] | 0.1 to 10 nM |
| CC(C)(C)CN1Cc2c(cc(Cl)c3[nH]ncc23)C[C@@H](N/C(=N/C#N)N2CCC(c3cc4ccccc4[nH]c3=O)CC2)C1=O [Example 99] | 0.1 to 10 nM |
| Cc1cc2c(c3cn[nH]c13)CN(CC(C)(C)C)C(=O)[C@H](CC(=O)N1CCC(c3cc4ccccc4[nH]c3=O)CC1)C2 [Example 100, (S)-4-methyl-9-neopentyl-7-(2-oxo-2-(4-(2-oxo-1,2-dihydroquinolin-3-yl)piperidin-1-yl)ethyl)-6,7,9,10-tetrahydroazepino[3,4-e]indazol-8(3H)-one] | 0.1 to 10 nM |
| Cc1cc2c(c3cn[nH]c13)CN(CC(C)(C)C)C(=O)[C@H](CC(=O)N1CCC(c3cc4cccc(F)c4[nH]c3=O)CC1)C2 [Example 101, (S)-7-(2-(4-(8-fluoro-2-oxo-1,2-dihydroquinolin-3-yl)piperidin-1-yl)-2-oxoethyl)-4-methyl-9-neopentyl-6,7,9,10-tetrahydroazepino[3,4-e]indazol-8(3H)-one] | 10 to 100 nM |
| CC(C)c1cc2c(c3cn[nH]c13)CN(CC(C)(C)C)C(=O)[C@H](CC(=O)N1CCC(c3cc4ccccc4[nH]c3=O)CC1)C2 [Example 104, (S)-4-isopropyl-9-neopentyl-7-(2-oxo-2-(4-(2-oxo-1,2-dihydroquinolin-3-yl)piperidin-1-yl)ethyl)-6,7,9,10-tetrahydroazepino[3,4-e]indazol-8(3H)-one] | 10 to 100 nM |
| CC(C)c1cc2c(c3cn[nH]c13)CN(CC(C)(C)C)C(=O)[C@H](CC(=O)N1CCC(c3cc4cccc(F)c4[nH]c3=O)CC1)C2 [Example 105, (S)-7-(2-(4-(8-fluoro-2-oxo-1,2-dihydroquinolin-3-yl)piperidin-1-yl)-2-oxoethyl)-4-isopropyl-9-neopentyl-6,7,9,10-tetrahydroazepino[3,4-e]indazol-8(3H)-one] | 10 to 100 nM |
| CC(C)c1cc2c(c3cn[nH]c13)CN(CC(F)(F)F)C(=O)[C@H](CC(=O)N1CCC(c3cc4cccc(F)c4[nH]c3=O)CC1)C2 [Example 107, (S)-7-(2-(4-(8-fluoro-2-oxo-1,2-dihydroquinolin-3-yl)piperidin-1-yl)-2-oxoethyl)-4-isopropyl-9-(2,2,2-trifluoroethyl)-6,7,9,10-tetrahydroazepino[3,4-e]indazol-8(3H)-one] | 100 to 1000 nM |
| C=C(C)c1cc2c(c3cn[nH]c13)CN(CC(F)(F)F)C(=O)[C@H](CC(=O)N1CCC(c3cc4cccc(F)c4[nH]c3=O)CC1)C2 [Example 109, (S)-7-(2-(4-(8-fluoro-2-oxo-1,2-dihydroquinolin-3-yl)piperidin-1-yl)-2-oxoethyl)-4-(prop-1-en-2-yl)-9-(2,2,2-trifluoroethyl)-6,7,9,10-tetrahydroazepino[3,4-e]indazol-8(3H)-one] | 100 to 1000 nM |
| O=C(C[C@@H]1Cc2cc(Br)c3[nH]ncc3c2CN(CC2CC2)C1=O)N1CCC(c2cc3cccc(F)c3[nH]c2=O)CC1 [Example 112, (S)-4-bromo-9-(cyclopropylmethyl)-7-(2-(4-(8-fluoro-2-oxo-1,2-dihydroquinolin-3-yl)piperidin-1-yl)-2-oxoethyl)-6,7,9,10-tetrahydroazepino[3,4-e]indazol-8(3H)-one] | 10 to 100 nM |
| COCCN1Cc2c(cc(Br)c3[nH]ncc23)C[C@@H](CC(=O)N2CCC(c3cc4ccccc4[nH]c3=O)CC2)C1=O [Example 113, (S)-4-bromo-9-(2-methoxyethyl)-7-(2-oxo-2-(4-(2-oxo-1,2-dihydroquinolin-3-yl)piperidin-1-yl)ethyl)-6,7,9,10-tetrahydroazepino[3,4-e]indazol-8(3H)-one] | 0.1 to 10 nM |
| CC(C)(C)CN1Cc2c(cc(Cl)c3[nH]ncc23)C[C@@H](CC(=O)N2CCC(c3cc4ccc(Cl)cc4[nH]c3=O)CC2)C1=O [Example 116] | 0.1 to 10 nM |

The remaining lines, values ahead:

| IC50 | Structure (SMILES) |
| --- | --- |
| 0.1 to 10 nM | O=C(C[C@@H]1Cc2cc(Cl)c3[nH]ncc3c2CN(CC(F)(F)F)C1=O)N1CCC(c2cc3ccccc3[nH]c2=O)CC1 [Example 90, (S)-4-chloro-7-(2-oxo-2-(4-(2-oxo-1,2-dihydroquinolin-3-yl)piperidin-1-yl)ethyl)-9-(2,2,2-trifluoroethyl)-6,7,9,10-tetrahydroazepino[3,4-e]indazol-8(3H)-one] |
| 0.1 to 10 nM | O=C(C[C@@H]1Cc2cc(Cl)c3[nH]ncc3c2CN(CC(F)(F)F)C1=O)N1CCC(c2cc3cccc(F)c3[nH]c2=O)CC1 [Example 91, (S)-4-chloro-7-(2-(4-(8-fluoro-2-oxo-1,2-dihydroquinolin-3-yl)piperidin-1-yl)-2-oxoethyl)-9-(2,2,2-trifluoroethyl)-6,7,9,10-tetrahydroazepino[3,4-e]indazol-8(3H)-one] |
| 10 to 100 nM | CC(C)(C)CN1Cc2c(cc(Br)c3[nH]ncc23)C[C@@H](CC(=O)N2CCC(c3cc4cccc(F)c4[nH]c3=O)CC2)C1=O [Example 95, (S)-4-bromo-7-(2-(4-(8-fluoro-2-oxo-1,2-dihydroquinolin-3-yl)piperidin-1-yl)-2-oxoethyl)-9-neopentyl-6,7,9,10-tetrahydroazepino[3,4-e]indazol-8(3H)-one] |
| 0.1 to 10 nM | O=C(C[C@@H]1Cc2cc(Br)c3[nH]ncc3c2CN(CC(F)(F)F)C1=O)N1CCC(c2cc3cccnc3[nH]c2=O)CC1 [Example 96, (S)-4-bromo-7-(2-oxo-2-(4-(2-oxo-1,2-dihydro-1,8-naphthyridin-3-yl)piperidin-1-yl)ethyl)-9-(2,2,2-trifluoroethyl)-6,7,9,10-tetrahydroazepino[3,4-e]indazol-8(3H)-one] |
| 0.1 to 10 nM | O=C(C[C@@H]1Cc2cc(Br)c3[nH]ncc3c2CN(CC(F)(F)F)C1=O)N1CCC(c2cc3ccccc3[nH]c2=O)CC1 [Example 97, (S)-4-bromo-7-(2-oxo-2-(4-(2-oxo-1,2-dihydroquinolin-3-yl)piperidin-1-yl)ethyl)-9-(2,2,2-trifluoroethyl)-6,7,9,10-tetrahydroazepino[3,4-e]indazol-8(3H)-one] |
| 10 to 100 nM | O=C(C[C@@H]1Cc2cc(Br)c3[nH]ncc3c2CN(CC(F)(F)F)C1=O)N1CCC(c2cc3cccc(F)c3[nH]c2=O)CC1 [Example 98, (S)-4-bromo-7-(2-(4-(8-fluoro-2-oxo-1,2-dihydroquinolin-3-yl)piperidin-1-yl)-2-oxoethyl)-9-(2,2,2-trifluoroethyl)-6,7,9,10-tetrahydroazepino[3,4-e]indazol-8(3H)-one] |
| 0.1 to 10 nM | Cc1cc2c(c3cn[nH]c13)CN(CC(F)(F)F)C(=O)[C@H](CC(=O)N1CCC(c3cc4ccccc4[nH]c3=O)CC1)C2 [Example 102, (S)-4-methyl-7-(2-oxo-2-(4-(2-oxo-1,2-dihydroquinolin-3-yl)piperidin-1-yl)ethyl)-9-(2,2,2-trifluoroethyl)-6,7,9,10-tetrahydroazepino[3,4-e]indazol-8(3H)-one] |
| 10 to 100 nM | Cc1cc2c(c3cn[nH]c13)CN(CC(F)(F)F)C(=O)[C@H](CC(=O)N1CCC(c3cc4cccc(F)c4[nH]c3=O)CC1)C2 [Example 103, (S)-7-(2-(4-(8-fluoro-2-oxo-1,2-dihydroquinolin-3-yl)piperidin-1-yl)-2-oxoethyl)-4-methyl-9-(2,2,2-trifluoroethyl)-6,7,9,10-tetrahydroazepino[3,4-e]indazol-8(3H)-one] |
| 10 to 100 nM | CC(C)c1cc2c(c3cn[nH]c13)CN(CC(F)(F)F)C(=O)[C@H](CC(=O)N1CCC(c3cc4ccccc4[nH]c3=O)CC1)C2 [Example 106, (S)-4-isopropyl-7-(2-oxo-2-(4-(2-oxo-1,2-dihydroquinolin-3-yl)piperidin-1-yl)ethyl)-9-(2,2,2-trifluoroethyl)-6,7,9,10-tetrahydroazepino[3,4-e]indazol-8(3H)-one] |
| 10 to 100 nM | C=C(C)c1cc2c(c3cn[nH]c13)CN(CC(F)(F)F)C(=O)[C@H](CC(=O)N1CCC(c3cc4ccccc4[nH]c3=O)CC1)C2 [Example 108, (S)-7-(2-oxo-2-(4-(2-oxo-1,2-dihydroquinolin-3-yl)piperidin-1-yl)ethyl)-4-(prop-1-en-2-yl)-9-(2,2,2-trifluoroethyl)-6,7,9,10-tetrahydroazepino[3,4-e]indazol-8(3H)-one] |
